Assay [1] addresses Serine/threonine-protein kinase N1 (Homo sapiens) (UniProt Q16512). Briefly: Residual activity of PRK1 at 1 uM by microplate scintillation counting.
In assay [2] the target is T1, NUAK family SNF1-like kinase 1 (Homo sapiens) (UniProt O60285).
T1 sequence (whole entry): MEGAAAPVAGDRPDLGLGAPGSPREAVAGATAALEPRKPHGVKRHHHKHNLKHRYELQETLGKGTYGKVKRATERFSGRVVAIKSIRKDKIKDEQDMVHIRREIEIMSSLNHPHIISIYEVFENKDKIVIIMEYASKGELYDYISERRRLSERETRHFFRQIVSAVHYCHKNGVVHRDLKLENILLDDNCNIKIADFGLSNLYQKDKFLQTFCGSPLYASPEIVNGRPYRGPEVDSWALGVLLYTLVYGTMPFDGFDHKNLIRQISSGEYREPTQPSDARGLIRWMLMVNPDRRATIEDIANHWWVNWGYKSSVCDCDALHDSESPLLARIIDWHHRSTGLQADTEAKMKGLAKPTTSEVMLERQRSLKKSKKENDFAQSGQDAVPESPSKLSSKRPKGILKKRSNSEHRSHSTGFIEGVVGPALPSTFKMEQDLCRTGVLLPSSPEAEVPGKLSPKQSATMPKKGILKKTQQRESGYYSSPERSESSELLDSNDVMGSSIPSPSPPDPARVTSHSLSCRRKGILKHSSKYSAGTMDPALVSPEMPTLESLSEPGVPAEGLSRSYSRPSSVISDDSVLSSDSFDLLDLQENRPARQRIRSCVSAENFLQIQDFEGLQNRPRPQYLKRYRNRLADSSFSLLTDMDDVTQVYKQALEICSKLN
The assay can be described thus: Residual activity of ARK5 at 1 uM by microplate scintillation counting.

Assay [3] concerns the target MAP/microtubule affinity-regulating kinase 3 (Homo sapiens) (UniProt P27448). Briefly: Residual activity of MARK3 at 1 uM by microplate scintillation counting.
The target of assay [4] is Vascular endothelial growth factor receptor 3 (Homo sapiens, UniProt P35916). The assay can be described thus: Residual activity of VEGFR3 at 0.1 uM by microplate scintillation counting.
Assay [5] concerns the target Mitogen-activated protein kinase 14 (Homo sapiens) (UniProt Q16539). The assay can be described thus: Residual activity of p38alpha at 10 uM by microplate scintillation counting.
Assay [6] concerns the target T2, Serine/threonine-protein kinase Sgk1 (Homo sapiens) (UniProt O00141).
T2 sequence (whole entry): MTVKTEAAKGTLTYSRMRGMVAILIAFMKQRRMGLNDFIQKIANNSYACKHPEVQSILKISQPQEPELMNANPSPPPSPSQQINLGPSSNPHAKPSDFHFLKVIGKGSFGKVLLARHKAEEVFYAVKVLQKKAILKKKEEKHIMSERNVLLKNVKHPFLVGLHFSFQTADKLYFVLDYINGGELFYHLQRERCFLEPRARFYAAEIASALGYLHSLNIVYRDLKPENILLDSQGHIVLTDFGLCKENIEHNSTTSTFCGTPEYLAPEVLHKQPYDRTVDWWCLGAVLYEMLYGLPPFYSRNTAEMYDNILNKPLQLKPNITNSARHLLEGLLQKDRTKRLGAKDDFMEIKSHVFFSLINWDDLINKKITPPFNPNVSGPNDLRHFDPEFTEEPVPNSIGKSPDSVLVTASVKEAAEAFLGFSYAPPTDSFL
The assay can be described thus: Residual activity of SGK1 at 10 uM by microplate scintillation counting.

In assay [7] the target is T3, Discoidin domain-containing receptor 2 (Homo sapiens) (UniProt Q16832).
T3 sequence (whole entry): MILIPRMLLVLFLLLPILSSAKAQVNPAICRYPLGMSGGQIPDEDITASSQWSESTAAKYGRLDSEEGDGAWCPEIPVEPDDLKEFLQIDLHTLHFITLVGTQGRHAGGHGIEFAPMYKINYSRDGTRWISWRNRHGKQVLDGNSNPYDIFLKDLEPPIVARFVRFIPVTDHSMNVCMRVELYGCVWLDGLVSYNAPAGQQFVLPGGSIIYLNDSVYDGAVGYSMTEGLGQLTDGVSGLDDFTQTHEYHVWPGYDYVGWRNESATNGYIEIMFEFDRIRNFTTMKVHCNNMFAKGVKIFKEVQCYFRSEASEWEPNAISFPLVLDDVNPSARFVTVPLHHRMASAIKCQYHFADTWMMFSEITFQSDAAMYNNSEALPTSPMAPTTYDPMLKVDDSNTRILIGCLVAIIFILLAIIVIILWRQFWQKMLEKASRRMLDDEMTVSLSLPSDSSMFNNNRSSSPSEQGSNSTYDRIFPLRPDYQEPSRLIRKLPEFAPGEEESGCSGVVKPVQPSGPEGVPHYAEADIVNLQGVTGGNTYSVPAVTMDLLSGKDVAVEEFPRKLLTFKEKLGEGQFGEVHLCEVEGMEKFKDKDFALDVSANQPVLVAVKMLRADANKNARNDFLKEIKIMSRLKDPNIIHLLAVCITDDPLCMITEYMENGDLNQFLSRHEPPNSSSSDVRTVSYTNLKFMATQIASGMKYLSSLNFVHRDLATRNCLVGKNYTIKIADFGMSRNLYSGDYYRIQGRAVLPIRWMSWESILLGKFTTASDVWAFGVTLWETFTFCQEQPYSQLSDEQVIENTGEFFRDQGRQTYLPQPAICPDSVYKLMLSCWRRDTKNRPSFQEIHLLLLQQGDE
The assay can be described thus: Residual activity of DDR2 at 1 uM by microplate scintillation counting.

The target of assay [8] is Mitogen-activated protein kinase 11 (Homo sapiens) (UniProt Q15759). Briefly: Residual activity of p38beta at 10 uM by microplate scintillation counting.
The subject of assay [9] is Serine/threonine-protein kinase B-raf (Homo sapiens), P15056 [V600E]. Briefly: Residual activity of B-RAF V600E mutant at 1 uM by microplate scintillation counting.
Assay [10] has as its target Ephrin type-A receptor 5 (Homo sapiens) (UniProt P54756). The assay can be described thus: Residual activity of EPHA5 at 1 uM by microplate scintillation counting.
The target of assay [11] is Death-associated protein kinase 3 (Homo sapiens) (UniProt O43293). Briefly: Residual activity of DAPK3 at 1 uM by microplate scintillation counting.
Sequence of Death-associated protein kinase 3 (Homo sapiens) (O43293 whole entry, looked up): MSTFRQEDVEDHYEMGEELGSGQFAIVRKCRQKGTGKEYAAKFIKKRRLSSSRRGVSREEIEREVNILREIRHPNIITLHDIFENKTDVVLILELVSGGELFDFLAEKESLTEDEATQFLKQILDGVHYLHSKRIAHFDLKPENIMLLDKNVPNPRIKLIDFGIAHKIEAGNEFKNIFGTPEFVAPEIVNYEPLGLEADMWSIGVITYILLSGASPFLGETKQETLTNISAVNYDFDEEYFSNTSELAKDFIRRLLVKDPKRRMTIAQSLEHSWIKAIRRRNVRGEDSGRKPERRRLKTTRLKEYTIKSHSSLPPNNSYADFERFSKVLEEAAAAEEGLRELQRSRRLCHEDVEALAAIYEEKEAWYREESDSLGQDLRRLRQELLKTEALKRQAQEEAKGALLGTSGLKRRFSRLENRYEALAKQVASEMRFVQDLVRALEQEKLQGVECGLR
For assay [12], the target named is Tyrosine-protein kinase receptor UFO (Homo sapiens) (UniProt P30530). Briefly: Residual activity of AXL at 1 uM by microplate scintillation counting.
Assay [13] concerns the target Homeodomain-interacting protein kinase 3 (Homo sapiens) (UniProt Q9H422). The assay can be described thus: Residual activity of HIPK3 at 10 uM by microplate scintillation counting.
Assay [14] has as its system Serine/threonine-protein kinase B-raf (Homo sapiens), P15056 [V600E]. Briefly: Residual activity of B-RAF V600E mutant at 10 uM by microplate scintillation counting.
Assay [15] deals with Vascular endothelial growth factor receptor 2 (Homo sapiens, UniProt P35968). Briefly: Residual activity of VEGFR2 at 0.1 uM by microplate scintillation counting.
Sequence of Vascular endothelial growth factor receptor 2 (P35968 whole entry): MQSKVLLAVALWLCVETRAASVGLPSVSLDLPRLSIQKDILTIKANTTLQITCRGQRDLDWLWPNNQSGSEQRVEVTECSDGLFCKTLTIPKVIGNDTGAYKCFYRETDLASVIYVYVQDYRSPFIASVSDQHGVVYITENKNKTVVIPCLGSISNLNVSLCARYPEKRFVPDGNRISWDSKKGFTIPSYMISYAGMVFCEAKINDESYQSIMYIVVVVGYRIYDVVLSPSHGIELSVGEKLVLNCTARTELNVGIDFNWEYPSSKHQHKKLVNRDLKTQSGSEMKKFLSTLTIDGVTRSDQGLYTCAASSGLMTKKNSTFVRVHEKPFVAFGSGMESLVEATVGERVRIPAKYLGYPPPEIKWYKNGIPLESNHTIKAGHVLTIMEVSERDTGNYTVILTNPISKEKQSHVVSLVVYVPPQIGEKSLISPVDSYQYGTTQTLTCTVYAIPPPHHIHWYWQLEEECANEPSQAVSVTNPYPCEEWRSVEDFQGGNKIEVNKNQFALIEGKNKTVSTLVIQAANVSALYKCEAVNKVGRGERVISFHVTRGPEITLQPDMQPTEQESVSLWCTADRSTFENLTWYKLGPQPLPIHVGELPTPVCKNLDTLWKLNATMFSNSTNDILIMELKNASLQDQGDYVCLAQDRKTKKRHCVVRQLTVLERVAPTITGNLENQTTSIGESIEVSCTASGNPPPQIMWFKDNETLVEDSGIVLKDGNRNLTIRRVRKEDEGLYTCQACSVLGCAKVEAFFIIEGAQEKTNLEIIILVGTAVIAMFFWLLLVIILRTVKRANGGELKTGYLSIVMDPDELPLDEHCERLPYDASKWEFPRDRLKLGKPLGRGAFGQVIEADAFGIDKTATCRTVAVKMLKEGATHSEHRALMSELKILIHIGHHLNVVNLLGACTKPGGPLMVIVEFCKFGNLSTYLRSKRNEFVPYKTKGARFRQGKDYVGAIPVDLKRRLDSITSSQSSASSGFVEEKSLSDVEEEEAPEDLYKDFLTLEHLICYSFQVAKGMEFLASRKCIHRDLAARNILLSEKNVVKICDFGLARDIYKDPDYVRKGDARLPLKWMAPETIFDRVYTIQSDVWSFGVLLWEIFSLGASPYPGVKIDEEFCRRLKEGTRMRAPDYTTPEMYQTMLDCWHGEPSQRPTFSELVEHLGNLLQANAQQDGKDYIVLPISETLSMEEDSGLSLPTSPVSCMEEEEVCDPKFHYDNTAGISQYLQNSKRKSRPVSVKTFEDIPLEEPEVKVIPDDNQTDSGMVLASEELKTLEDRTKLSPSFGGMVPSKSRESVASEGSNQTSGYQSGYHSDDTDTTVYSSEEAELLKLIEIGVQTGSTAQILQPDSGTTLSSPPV
For assay [16], the target named is Serine/threonine-protein kinase SIK2 (Homo sapiens) (UniProt Q9H0K1). The assay can be described thus: Residual activity of SNF1LK2 at 1 uM by microplate scintillation counting.
The target in assay [17] is Tyrosine-protein kinase Fes/Fps (Homo sapiens) (UniProt P07332). The assay can be described thus: Residual activity of FES at 1 uM by microplate scintillation counting.
Sequence of Tyrosine-protein kinase Fes/Fps (Homo sapiens) (P07332 whole entry): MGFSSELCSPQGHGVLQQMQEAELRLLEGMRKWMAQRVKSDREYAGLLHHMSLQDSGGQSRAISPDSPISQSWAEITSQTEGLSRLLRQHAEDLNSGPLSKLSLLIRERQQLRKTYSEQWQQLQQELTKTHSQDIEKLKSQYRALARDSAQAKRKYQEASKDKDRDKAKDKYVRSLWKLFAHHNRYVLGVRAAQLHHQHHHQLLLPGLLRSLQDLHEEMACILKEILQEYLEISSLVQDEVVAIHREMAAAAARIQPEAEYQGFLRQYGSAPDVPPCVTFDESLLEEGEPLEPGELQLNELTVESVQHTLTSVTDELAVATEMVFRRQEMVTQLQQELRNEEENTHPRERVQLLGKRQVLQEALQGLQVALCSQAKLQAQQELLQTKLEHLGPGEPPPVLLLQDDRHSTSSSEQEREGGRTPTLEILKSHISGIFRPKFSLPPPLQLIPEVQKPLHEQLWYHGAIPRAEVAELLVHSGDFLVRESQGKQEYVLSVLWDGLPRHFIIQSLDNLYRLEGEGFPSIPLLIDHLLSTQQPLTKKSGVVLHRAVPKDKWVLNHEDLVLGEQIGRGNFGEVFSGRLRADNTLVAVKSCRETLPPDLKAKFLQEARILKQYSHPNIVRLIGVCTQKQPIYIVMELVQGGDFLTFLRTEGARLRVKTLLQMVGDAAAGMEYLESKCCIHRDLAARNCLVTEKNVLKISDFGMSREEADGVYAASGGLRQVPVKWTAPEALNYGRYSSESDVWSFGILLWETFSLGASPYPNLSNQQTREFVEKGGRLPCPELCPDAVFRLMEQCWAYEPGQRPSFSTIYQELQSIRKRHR

Each structure is given as a SMILES string.

Sequence of Ephrin type-A receptor 5 (Homo sapiens) (P54756 whole entry): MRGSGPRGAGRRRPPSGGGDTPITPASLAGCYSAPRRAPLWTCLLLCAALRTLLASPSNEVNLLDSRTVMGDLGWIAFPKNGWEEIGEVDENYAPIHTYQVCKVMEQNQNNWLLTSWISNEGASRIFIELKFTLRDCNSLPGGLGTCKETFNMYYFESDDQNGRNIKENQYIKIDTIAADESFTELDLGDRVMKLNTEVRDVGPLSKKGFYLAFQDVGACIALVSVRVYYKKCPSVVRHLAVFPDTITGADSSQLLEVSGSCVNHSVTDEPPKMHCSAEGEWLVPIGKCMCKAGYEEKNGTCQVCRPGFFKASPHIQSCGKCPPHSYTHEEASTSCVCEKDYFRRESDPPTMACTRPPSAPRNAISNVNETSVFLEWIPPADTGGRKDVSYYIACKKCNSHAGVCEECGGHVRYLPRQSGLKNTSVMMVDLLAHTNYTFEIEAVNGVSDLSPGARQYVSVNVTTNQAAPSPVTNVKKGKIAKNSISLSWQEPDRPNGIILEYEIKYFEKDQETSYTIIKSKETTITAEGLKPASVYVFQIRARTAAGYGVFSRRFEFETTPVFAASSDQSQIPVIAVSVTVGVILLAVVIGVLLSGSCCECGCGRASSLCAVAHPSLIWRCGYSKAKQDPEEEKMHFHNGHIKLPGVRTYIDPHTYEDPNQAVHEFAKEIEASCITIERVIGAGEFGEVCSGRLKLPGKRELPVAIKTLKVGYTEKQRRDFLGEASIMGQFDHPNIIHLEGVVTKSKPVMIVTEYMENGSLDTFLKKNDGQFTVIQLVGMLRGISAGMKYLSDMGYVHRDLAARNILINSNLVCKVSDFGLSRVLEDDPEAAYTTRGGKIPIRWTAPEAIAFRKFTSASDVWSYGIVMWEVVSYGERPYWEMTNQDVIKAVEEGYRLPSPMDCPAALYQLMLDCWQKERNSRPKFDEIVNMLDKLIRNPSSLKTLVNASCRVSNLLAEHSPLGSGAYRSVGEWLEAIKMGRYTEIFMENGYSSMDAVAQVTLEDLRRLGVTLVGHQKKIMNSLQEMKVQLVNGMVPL
Sequence of Mitogen-activated protein kinase 14 (Homo sapiens) (Q16539 whole entry): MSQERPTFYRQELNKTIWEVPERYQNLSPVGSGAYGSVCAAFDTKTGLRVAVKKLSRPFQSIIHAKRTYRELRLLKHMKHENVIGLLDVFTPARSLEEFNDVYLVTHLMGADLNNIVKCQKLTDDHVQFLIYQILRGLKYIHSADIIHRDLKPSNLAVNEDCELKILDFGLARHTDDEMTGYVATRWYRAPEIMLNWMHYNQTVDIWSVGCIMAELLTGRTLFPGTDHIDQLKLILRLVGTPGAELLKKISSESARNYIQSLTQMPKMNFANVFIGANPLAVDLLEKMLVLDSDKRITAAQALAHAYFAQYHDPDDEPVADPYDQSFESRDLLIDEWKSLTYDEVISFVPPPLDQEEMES
Sequence of Serine/threonine-protein kinase B-raf (Homo sapiens), P15056 [V600E] (P15056 whole entry V600E): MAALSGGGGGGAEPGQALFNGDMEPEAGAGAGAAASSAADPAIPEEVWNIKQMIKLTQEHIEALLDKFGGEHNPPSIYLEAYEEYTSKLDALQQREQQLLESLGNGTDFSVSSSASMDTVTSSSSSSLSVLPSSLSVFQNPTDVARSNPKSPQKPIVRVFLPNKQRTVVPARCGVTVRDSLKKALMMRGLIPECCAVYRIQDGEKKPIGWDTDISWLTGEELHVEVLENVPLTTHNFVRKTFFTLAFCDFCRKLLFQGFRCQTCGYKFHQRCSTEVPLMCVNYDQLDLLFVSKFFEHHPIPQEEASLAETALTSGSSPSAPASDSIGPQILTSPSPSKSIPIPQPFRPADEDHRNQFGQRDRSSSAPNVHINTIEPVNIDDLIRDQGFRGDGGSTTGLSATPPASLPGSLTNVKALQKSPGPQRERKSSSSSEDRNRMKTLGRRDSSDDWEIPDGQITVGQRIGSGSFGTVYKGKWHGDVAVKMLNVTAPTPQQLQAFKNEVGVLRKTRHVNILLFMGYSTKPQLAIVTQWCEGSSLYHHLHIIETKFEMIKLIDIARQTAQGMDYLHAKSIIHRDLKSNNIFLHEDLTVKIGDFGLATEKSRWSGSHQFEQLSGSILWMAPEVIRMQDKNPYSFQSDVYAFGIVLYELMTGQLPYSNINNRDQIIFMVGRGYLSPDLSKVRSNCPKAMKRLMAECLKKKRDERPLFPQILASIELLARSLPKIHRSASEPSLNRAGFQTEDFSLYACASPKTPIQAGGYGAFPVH

Take `COc1cc2c(Oc3ccc(-c4nc5ccccc5s4)cc3)ncnc2cc1OCCCN1CCCC1`: the residual activity came out at 97% in assay [1]; 91% in [2]; 91% in assay [3]; 57% in assay [4]; 325% in assay [5]; 92% in assay [6]. The residual activity in assay [7] was found to be 99%; in assay [8], 337%; in assay [9], 83%; in assay [10] it was 119%; in assay [11], 86%; in assay [12], 71%. Moreover, the residual activity stood at 147% in [13]; 58% in assay [14]; 73% in assay [15]; 78% in [16]; 123% in [17].
As to `COc1cc2c(Oc3ccc(-c4nc5ccccc5s4)cc3F)ncnc2cc1OCCCN1CCN(C)CC1`, the residual activity turned out to be 99% in assay [1]; 101% in assay [2]; 91% in [3]; 64% in assay [4]; 320% in assay [5]; 117% in assay [6]. Moreover, the residual activity in assay [7] came out at 88%; in [8] it was 337%; in assay [9], 79%; in assay [10], 95%; in assay [11], 81%; in assay [12] it was 89%. Further, the residual activity in [13] was 142%; in assay [14] it was 81%; in assay [15], 73%; in [16], 85%; in assay [17], 112%.
As for `COc1cc2c(Oc3ccc(-c4nc5ccccc5s4)cc3)ncnc2cc1OCCCN1CCN(C)CC1`, the residual activity amounted to 98% in [1]; 88% in [2]; 93% in assay [3]; 60% in assay [4]; 327% in assay [5]; 0% in [6]. The residual activity stood at 79% in assay [7]; 350% in [8]; 86% in assay [9]; 103% in assay [10]; 84% in [11]; 88% in assay [12]. Further, the residual activity worked out at 132% in assay [13]; 57% in assay [14]; 65% in assay [15]; 88% in [16]; 105% in assay [17].

Values taken from ChEMBL document CHEMBL1152560, “Substituted 2-arylbenzothiazoles as kinase inhibitors: hit-to-lead optimization” (Bioorg Med Chem, 2009).
